Patent publication US20240123079A1 (Seagen Inc., priority 2021, published 2024)

What was measured:
[1] = system: DELBVR; assay: Cancer cell direct cytotoxicity assay (CellTiter-Glo), DELBVR; assay type: cell-based; conditions: Homo sapiens, 96 h, free compound, read-out: Compound X50
Procedure: (§1) Bystander activity of ADCs was evaluated using Renca cancer cells and THP1-Dual™ cells (InvivoGen) which contain an IRF-Lucia luciferase reporter. Cells were cultured in RPMI-1640 (Gibco) with 10% heat-inactivated fetal bovine serum, Pen-Strep (100 U/ml-100 μg/ml, Gibco), HEPES (10 mM, Gibco), sodium pyruvate (1 mM, Gibco), MEM non-essential amino acids (1×, Gibco), GlutaMAX (1×, Gibco), and beta-mercaptoethanol (55 μM, Gibco). Renca cells were plated in a 96-well flat bottom tissue culture-treated clear polystyrene plate (Corning Costar #3596) at 50,000 cells per well in 100 μL. On the day following the initial plating, 50,000 THP1-Dual™ cells were added to each well with the indicated concentration of ADC in a total volume of 200 μL. Supernatant was harvested at 48 hours post addition of the THP1-Dual™ cells. To measure Lucia reporter signal, 10 μL of supernatant was combined with 40 μL of QUANTI-Luc™ Luminescence assay reagent (Invivogen PN: rep-qlc1) in a 96-well clear flat bottom tissue culture-treated black polystyrene plate (Corning Costar PN: 3603) and read on a Perkin Elmer Envision plate reader. In some experiments, HEK 293T cells engineered to express a murine protein typically expressed by immune cells (target antigen C— an immune cell antigen) were plated as above instead of Renca tumor cells. Cancer Cell Direct Cytotoxicity Assay
Cancer cells were counted and plated in 40 μL complete growth media in 384-well, white-walled tissue culture treated plates (Corning). Cell plates were incubated at 37° C. and with 5% CO2 overnight to allow the cells to equilibrate. Stock solutions containing ADCs or free drugs were serially diluted in RPMI-1640+20% fetal bovine serum (FBS). 10 μL of each concentration were then added to each cell plate in duplicate. Cells were then incubated at 37° C. and with 5% CO2 for 96 hours, upon which, the cell plates were removed from the incubator and allowed to cool to room temperature for 30 minutes prior to analysis. […] The luminescence of the samples was measured using an EnVision Multimode plate reader (Perkin Elmer, Waltham, MA). […]

[2] = system: THP1-Dual™ reporter cells; assay: THP1-Dual cell reporter assay (IRF-Lucia luciferase reporter); assay type: cell-based, human; conditions: for EC50: Homo sapiens, THP1-Dual, free compounds, 24 h, Lucia reporter signal, read-out: EC50; for potency relative to other free compound: free drug
Outline: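 THP1-Dual monocytic cells (~100,000/well) were exposed to compound for 24 h (ADCs 48 h). Secreted IRF-driven Lucia luciferase in the supernatant was quantified by QUANTI-Luc luminescence.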

[3] = system: human cancer cell lines; assay: Cancer cell direct cytotoxicity assay, panel statement; assay type: cell-based; conditions: panel of human cancer cell lines
Procedure: as §1
Cancer cells were counted and plated in 40 μL complete growth media in 384-well, white-walled tissue culture treated plates (Corning). Cell plates were incubated at 37° C. and with 5% CO2 overnight to allow the cells to equilibrate. […] The luminescence of the samples was measured using an EnVision Multimode plate reader (Perkin Elmer, Waltham, MA). […]
Compound 12a was conjugated to both targeted and non-binding antibodies using a variety of non-cleavable linkers (12, 17, 19-24) and the resulting ADCs were assessed for their ability to activate THP1-Dual™ reporter cells. […] We also evaluated the ability of these linkers to directly kill cancer cells when conjugated to targeted mAbs binding tumor antigen A or antigen B (CD30).

With `CCn1nc(C)cc1C(=O)Nc1nc2cc(C(N)=O)cc(O)c2n1C/C=C/Cn1c(NC(=O)c2cc(C)nn2CC)nc2cc(C(N)=O)cc(OC)c21` [Compound 1, (E)-1-(4-(5-carbamoyl-2-(1-ethyl-3-methyl-1H-pyrazole-5-carboxamido)-7-hydroxy-1H-benzo[d]imidazol-1-yl)but-2-en-1-yl)-2-(1-ethyl-3-methyl-1H-pyrazole-5-carboxamido)-7-methoxy-1H-benzo[d]imidazole-5-carboxamide] the IC50 [1] was 16 nM, the EC50 [2] was 5 nM and the “potency relative to other free compound” value [2] was “significantly more potent”. For the same compound, the “direct cytotoxic activity on cancer cell lines” value [3] was “demonstrated direct cytotoxic activity on a subset of cancer cell lines”.

`CCn1nc(C)cc1C(=O)Nc1nc2cc(C(N)=O)cc(OC)c2n1C/C=C/Cn1c(NC(=O)c2cc(C)nn2CC)nc2cc(C(N)=O)cc(OCCCNC)c21` [Compound 12a] was tested, and the IC50 [1] was 111 nM, the EC50 [2] was 21 nM and the “potency relative to other free compound” value [2] was “less potent than compound 1 and compound A”. For the same compound, the “direct cytotoxic activity on cancer cell lines” value [3] was “demonstrated direct cytotoxic activity on a subset of cancer cell lines”.
